Assay results published in US20060046009A1, “Optical disk” (TDK Corporation, priority 2004, published 2006).

Assay: Solubility of the cyanine dyes in 2,2,3,3-tetrafluoro-1-propanol
Assay type: physicochemical
Conditions: in 2,2,3,3-tetrafluoro-1-propanol (TFP)
Text: FIGS. 1 and 2 are schematic fragmentary sectional views showing the vicinities of grooves in the optical disks according to Example 1 (counter ion: PF6^−) and Comparative Example 2 (counter ion: I^−), respectively. […] Thus, the optical disk in Example 1 has more uniform dye

SMILES: CN1/C(=C/C=C/C2=[N+](C)c3c(ccc4ccccc34)C2(C)C)C(C)(C)c2cc(Cl)ccc21 [Example 1]
- Solubility in TFP: 15 mg/mL

SMILES: CN1/C(=C/C=C/C2=[N+](C)c3ccc4ccccc4c3C2(C)Cc2ccccc2)C(C)(C)c2c1ccc1ccccc21 (centres unmarked) [Example 2]
- Solubility in TFP: 8 mg/mL
